Laboratory results taken from patent publication US10494341B2, “Compound containing indoleacetic acid core structure and use thereof” (Beijing An Jian Xi Bio-Medical Technology Co., Ltd., priority 2015, dated 2019).

What was measured:
COX-2 = target: T1, COX-2 (Rattus norvegicus, UniProt P35355); experiment: COX-2 activity assay (PGE2 in gastric mucosa, EIA) in LPS-treated rats; format: in vivo; conditions: gavage, LPS 2.5 mg/kg-activated
T1 construct: from tissue; host or cells: rat gastric mucosa (LPS-treated rats, in vivo dosing)
T1 sequence (P35355 18-604): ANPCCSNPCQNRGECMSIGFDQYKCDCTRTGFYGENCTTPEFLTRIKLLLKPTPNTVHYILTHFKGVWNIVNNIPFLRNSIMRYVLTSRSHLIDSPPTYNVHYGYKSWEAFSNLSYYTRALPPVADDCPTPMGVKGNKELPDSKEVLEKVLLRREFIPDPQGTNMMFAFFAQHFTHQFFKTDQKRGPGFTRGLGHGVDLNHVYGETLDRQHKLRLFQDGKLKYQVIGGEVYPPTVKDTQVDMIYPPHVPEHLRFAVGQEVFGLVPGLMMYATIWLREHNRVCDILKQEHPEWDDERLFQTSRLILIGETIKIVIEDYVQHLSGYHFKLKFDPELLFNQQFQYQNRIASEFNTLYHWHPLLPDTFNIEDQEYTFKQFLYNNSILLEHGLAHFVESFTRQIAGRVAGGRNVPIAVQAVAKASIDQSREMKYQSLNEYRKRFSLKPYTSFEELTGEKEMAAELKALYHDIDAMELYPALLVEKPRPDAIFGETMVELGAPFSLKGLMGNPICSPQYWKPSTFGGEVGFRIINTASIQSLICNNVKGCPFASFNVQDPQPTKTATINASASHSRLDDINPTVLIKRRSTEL
Experimental: (2) COX-2 activity assay: The assay was similar to that of COX-1, except that LPS was injected intraperitoneally to rats at a dose of 2.5 mg/kg to activate COX-2 in this experiment. After administration, the content of PGE2 in gastric mucosa was measured using an enzyme-linked immunosorbent assay (EIA) kit (operated according to the instructions provided by the manufacturer) and converted to COX2 activity.
The percentage inhibition rate against COX-1 (FIG. 1a—gastric mucosa, FIG. 1b—myocardium) and COX-2 (FIG. 1c) and the IC50 values (Table 1a—gastric mucosa; Table 1b—myocardium) of each tested pharmaceutical compound were calculated from the above data.

SW480 cells = experiment: Degradation of the compound in cells (HPLC); format: in vitro ADME; conditions: 10 μM
Experimental: Determination of the stability of the compound: (1) degradation of the compound in plasma: Compound a (10 μM) dissolved in DMSO was cultured with 10% bovine serum medium (5 mL) at 37° C. 200 μL of medium was collected at the time points of 1, 3, 6, 12 and 24 hours, respectively, added with equal volume of acetonitrile for reaction, and subjected to high speed centrifugation (13,000 rpm) for 5 minutes. The level of degradation of the compound was determined by HPLC. (2) Degradation of the compound in cells: the compound a dissolved in DMSO was added at a final concentration of 10 μM to a 6-well culture dish containing SW480 cells and incubated in carbon dioxide incubator. The cells were collected at the time points of 1, 3, 6, 12, and 24 hours, respectively, washed fully, then extracted with 0.5 mL of acetonitrile, and centrifuged at high speed (12,000 rpm) for 5 minutes. The level of degradation of the compound in the organic phase was determined by HPLC.

[1] = Metabolic kinetics in mice after gavage (plasma level of intermediate II); format: in vivo
Experimental: Metabolic kinetics of the compound a in mice: the compound a and the intermediate II were administered to mice respectively by gavage at a dose of 25 mg/kg each time and 12 mg/kg each time (equimolar concentration). Equal volume of blood samples were collected at the time points of 1, 3, 5, 9, 18 and 24 hours, and centrifuged immediately. 100 μL of supernatant (plasma) was got, added with 2-fold volume of acetonitrile immediately to extract the blood samples twice, and centrifuged at high speed (12,000 rpm) for 5 minutes. The level of the intermediate II in the organic phase was determined by HPLC, and the content of the compound fragments was detected by LC-MS. Pharmacokinetics was analyzed by Pharmacokinetics Solutions 2.0 software (Summit Research Services, Montrose, Colo., USA).

A549 cells = experiment: A549 transplanted tumors in nude mice, compound used alone; format: in vivo
Experimental: Except cisplatin (intraperitoneal injection, once a week), all compounds were administered by gavage, once a day for 5 weeks continuously.

HT-29 cells = experiment: HT-29 transplanted tumors in nude mice, compound a in combination with doxorubicin; format: in vivo; conditions: Doxorubicin 2 mg/kg/week i.p. or compound a 3 mg/kg/day gavage, 4 weeks
Experimental: Compound a was administered by gavage once a day for 4 weeks continuously; Doxorubicin was injected intraperitoneally once a week for 4 weeks. Body weight and tumor volume of animals were measured and calculated according to Example 9.

[2] = tested on: adenosine triphosphate-binding transporter (ABCG2); experiment: Expression of ABCG2 by immunoblotting; format: cell-based, mouse
Experimental: (§1) The mechanism of compounds enhancing killing effect of chemotherapeutic agents on tumor cells while protecting normal cells: mouse colon cancer cells (MCA-38) and primarily-cultured normal mouse intestinal mucosa cells were cultured in a 96-well plate, respectively. 24 hours later, various concentrations (10, 30 and 90 μM) of compound b was respectively added to the cell culture medium, and incubated for 24 hours. LDH was used to detect the damage of the cells, and the cells were collected and extracted for protein. The expression levels of adenosine triphosphate-binding transporter (ABCG2) and the cell cycle-dependent protein […] (p21) were detected by immunoblotting (performed according to the instructions provided by the manufacturer). […] ABCG2 is a transporter, and can pump anticancer drugs out of the cells. […] The high expression of p21 allows the cells to be in non-dividing quiescent phase, so that cells are not sensitive to chemotherapeutic drugs or injury in other forms. The compounds of the present invention make these proteins expressed differentially in normal tissues and tumor tissues, which is one of the reasons for selectively protecting normal tissues and enhancing the sensitivity of tumors to treatment.

[3] = tested on: cell cycle-dependent protein kinase (p21); experiment: Expression of p21 by immunoblotting; format: cell-based, mouse
Experimental: as §1

[4] = gavage, compound a 25 mg/kg, intermediate II 12 mg/kg (equimolar), intermediate II measured in plasma
[5] = normal mouse intestinal mucosa cells

Row | SMILES | inhibition against COX-2 (COX-2) | compound hydrolyzed in cells (SW480 cells; within 3 hours) [%] | compound hydrolyzed in cells (SW480 cells; within 24 hours) | content of intermediate II in plasma, versus mice given intermediate II ([1]; gavage 25 mg/kg) | metabolites in plasma ([1]; gavage 25 mg/kg) | AUC0 [1, 4] [ng·h/mL] | Cmax [1, 4] [ng/mL] | T1/2 [1, 4] [h] | Tmax [1, 4] [h] | inhibition of tumors (A549 cells; A549, high-dose compound a (25 mg/kg/day) gavage, 5 weeks) [%] | inhibitory effect on the tumor (A549 cells; A549, cisplatin 5 mg/kg/week i.p., compound a 5 and 25 mg/kg/day, intermediates 12.5 mg/kg/day each) | body weights of the animals (A549 cells; A549, high dose, during administration) | inhibition of the tumor, administered alone (HT-29 cells) | expression of ABCG2 in tumor cells ([2]; MCA-38 cells) | expression of ABCG2 in normal cells [2, 5] | expression of p21 in tumor cells ([3]; MCA-38 cells) | expression of p21 in normal intestinal mucosa cells [3, 5]
1 | COC1=C(OC)C(=O)C(CCCCCCCCCCOC(=O)Cc2c(C)n(C(=O)c3ccc(Cl)cc3)c3cc(OC)ccc23)=C(C)C1=O [compound a] | significantly enhanced | ~80 | completely hydrolyzed | significantly higher | significantly reduced | 63200 | 19800 | 7.6 | 5 | ≥ 60 | dose-dependent inhibitory effect against tumor | not significantly reduced | only slightly inhibited |  |  |  | 
2 | COc1ccc2c(CC(=O)OCCCCCCCCCCc3c(C)c(O)c(OC)c(OC)c3O)c(C)n(C(=O)c3ccc(Cl)cc3)c2c1 [compound b] | significantly enhanced |  |  |  |  |  |  |  |  |  |  |  |  | significantly inhibit expression | no influence | no influence | significantly enhance the expression of p21
